ChEMBL document CHEMBL3352794, “Identification of potent inhibitors of the chicken soluble epoxide hydrolase” (Bioorg Med Chem Lett, 2015)
≈ marks a conversion by molar mass, not a printed value.

Assays:
[1] = Inhibition of recombinant purified chicken soluble epoxide hydrolase using fluorescent PHOME as substrate; design: species or system Gallus gallus
[2] = Solubility of the compound in 0.1 M sodium phosphate buffer at pH 7.4 containing 1% DMSO by turbidity method; details: 0.1 M sodium phosphate buffer with 1% DMSO
[3] = Stability in human liver microsomes assessed as compound remaining at 1 uM after 30 mins by mass spectrometry
[4] = Stability in human liver microsomes assessed as compound remaining at 1 uM after 30 mins by mass spectrometry in presence of NADPH
[5] = Stability in chicken liver microsomes assessed as compound remaining at 1 uM after 30 mins by mass spectrometry
[6] = Stability in chicken liver microsomes assessed as compound remaining at 1 uM after 30 mins by mass spectrometry in presence of NADPH
[7] = Inhibition of recombinant purified chicken soluble epoxide hydrolase by FRET-based competitive displacement assay in presence of ACPU; design: species or system Gallus gallus

SMILES	IC50 [1] [nM]	also measured
O=C(NC1CCCCCCC1)N[C@H]1CC[C@@H](Oc2ccc(F)cc2)CC1	5.1	
CCN(CC)C(=O)c1cc(O[C@H]2CC[C@H](NC(=O)Nc3ccc(Cl)c(C(F)(F)F)c3)CC2)ccn1	9.6	
CCCCCOC(=O)C1CCC(NC(=O)NC23CC4CC(CC(C4)C2)C3)CC1 (stereo not given)	5.2	
O=C(Nc1ccc(OCCOCCOCC(F)(F)F)cc1)NC12CC3CC(CC(C3)C1)C2	4.4	
CNC(=O)c1ccc(O[C@H]2CC[C@@H](NC(=O)Nc3ccc(OC(F)(F)F)cc3)CC2)cc1	2.1	solubility kinetic [2]: 10 µM (≈ 4.51 µg/mL); remaining at 0.5 h, 1 µM [3]: 101%; remaining at 0.5 h, 1 µM [4]: 5.4%; remaining at 0.5 h, 1 µM [5]: 119%; remaining at 0.5 h, 1 µM [6]: 89%
COC(=O)c1ccc(C(=O)N2CCC(NC(=O)Nc3ccc(OC(F)(F)F)cc3)CC2)cc1	1.4	solubility kinetic [2]: 75 µM (≈ 34.9 µg/mL); remaining at 0.5 h, 1 µM [3]: 1.2%; remaining at 0.5 h, 1 µM [4]: 2.7%; remaining at 0.5 h, 1 µM [5]: 105%; remaining at 0.5 h, 1 µM [6]: 94%
CNC(=O)c1ccc(O[C@H]2CC[C@H](NC(=O)Nc3ccc(Cl)c(C(F)(F)F)c3)CC2)cn1	5.1	
CC(=O)N1CCN(CCCCOc2ccc(NC(=O)NC34CC5CC(CC(C5)C3)C4)cc2)CC1	2.3	
O=C(NC1CCCCCC1)N[C@H]1CC[C@@H](Oc2ccc(F)cc2)CC1	2.7	
CCOC(=O)C(C)OCCCCCCCCNC(=O)NC12CC3CC(CC(C3)C1)C2 (stereo not given)	4.4	
CNC(=O)c1cc(O[C@H]2CC[C@H](NC(=O)Nc3ccc(Cl)c(C(F)(F)F)c3)CC2)ccn1	11	
NS(=O)(=O)c1ccc(-n2nc(CCCNC(=O)Nc3ccc(C(F)(F)F)cc3)cc2-c2ccc(F)cc2)cc1	5.7	
O=C(CCCCCCCCCCCNC(=O)NC12CC3CC(CC(C3)C1)C2)N[C@@H]1O[C@H](CO)[C@H](O)[C@@H](O)[C@H]1O	3.5	
O=C(Nc1cccc(Cl)c1)N[C@H]1CC[C@H](OCc2c(F)cccc2F)CC1	2	
COc1ccc(O[C@H]2CC[C@@H](NC(=O)NC34CC5CC(CC(C5)C3)C4)CC2)cc1		remaining at 0.5 h, 1 µM [3]: 98%; remaining at 0.5 h, 1 µM [4]: 57%; remaining at 0.5 h, 1 µM [5]: 69%; remaining at 0.5 h, 1 µM [6]: 2.1%
O=C(NC12CC3CC(CC(C3)C1)C2)N[C@H]1CC[C@H](OCc2cc(F)cc(F)c2)CC1	3.1	
N#Cc1ccc(O[C@H]2CC[C@H](NC(=O)Nc3ccc(Cl)c(C(F)(F)F)c3)CC2)cc1	3.6	
CCCCCOC(=O)C1CCCC(NC(=O)NC23CC4CC(CC(C4)C2)C3)C1 (stereo not given)	5.7	

SMILES	IC50 [1] [nM]	also measured
CNC(=O)c1ccc(O[C@H]2CC[C@H](NC(=O)NC34CC5CC(CC(C5)C3)C4)CC2)cc1	2.4	solubility kinetic [2]: 50 µM (≈ 21.3 µg/mL); remaining at 0.5 h, 1 µM [3]: 101%; remaining at 0.5 h, 1 µM [4]: 94%; remaining at 0.5 h, 1 µM [5]: 96%; remaining at 0.5 h, 1 µM [6]: 96%; Ki [7]: < 0.02 nM
O=C(Nc1ccc(C(F)(F)F)cc1)N[C@H]1CC[C@H](OCc2c(F)cccc2F)CC1	4.4	
O=C(NCCCCOc1ccc(F)cc1)NC12CC3CC(CC(C3)C1)C2	9.6	
O=C(NCCCc1ccccc1)N[C@H]1CC[C@H](OCc2c(F)cccc2F)CC1	1.9	
Cc1cc(C)c(CN2CCC(C(=O)NC3CCCCCC3)CC2)c(C)c1	13	
NC(=O)CCCCCCCCCCCNC(=O)NC12CC3CC(CC(C3)C1)C2	2.1	
C=CCO[C@H]1CC[C@@H](NC(=O)NC23CC4CC(CC(C4)C2)C3)CC1	1.7	
O=C(O)CCCCCCCCCCCNC(=O)NC12CC3CC(CC(C3)C1)C2	13	solubility kinetic [2]: 37.5 µM (≈ 14.7 µg/mL); remaining at 0.5 h, 1 µM [3]: 98%; remaining at 0.5 h, 1 µM [4]: 69%; remaining at 0.5 h, 1 µM [5]: 106%; remaining at 0.5 h, 1 µM [6]: 70%
O=C(NC12CC3CC(CC(C3)C1)C2)N[C@H]1CC[C@@H](Oc2ccc(F)cc2)CC1	1.2	
O=C(NC12CC3CC(CC(C3)C1)C2)N[C@H]1CC[C@H](Oc2ccc(CO)cc2)CC1	1.2	solubility kinetic [2]: > 100 µM; remaining at 0.5 h, 1 µM [3]: 91%; remaining at 0.5 h, 1 µM [4]: 53%; remaining at 0.5 h, 1 µM [5]: 73%; remaining at 0.5 h, 1 µM [6]: 24%; Ki [7]: < 0.02 nM
O=C(Nc1cccc(Br)c1)N[C@H]1CC[C@H](OCc2c(F)cccc2F)CC1	2.4	
NS(=O)(=O)c1ccc(-n2nc(CCCNC(=O)NC3CCCCCC3)cc2-c2ccccc2)cc1	3.3	
Cc1ccc(S(=O)(=O)N2CCC(C(=O)NCC3CCCCC3)CC2)c(C)c1	3	
CC(=O)N1CCN(CCCCOc2cccc(NC(=O)NC34CC5CC(CC(C5)C3)C4)c2)CC1	4	
CC(C)(C)OC(=O)N1CCC(NC(=O)NC23CC4CC(CC(C4)C2)C3)CC1	7.5	
CC(C)=CCO[C@H]1CC[C@@H](NC(=O)NC23CC4CC(CC(C4)C2)C3)CC1	5.3	
O=C(NCCCc1ccccc1)N[C@H]1CC[C@@H](Oc2ccc(F)cc2)CC1	3.5	
